Activity calls are given as the source filed them. The rule behind the calls is not given here.

The text below walks through data of PubChem BioAssay AID1259411 (Chemical Carcinogenesis Research Information System (CCRIS), 2018).

In this data set the test system is rodent carcinogenicity bioassays, tumor incidence. Description: CCRIS carcinogenicity studies. The following applies: Dose: 0, Dose: 0. Summed up:
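NCI-built, expert-reviewed records of carcinogenicity and related test outcomes (mutagenicity, tumor promotion/inhibition) compiled from published and report sources, historical span 1985-2011, not updated.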

For `Cc1ccc([N+](=O)[O-])cc1N`, the carcinogen call by setting is: (Species: MOUSE, Strain/Sex: B6C3F1/FEMALE, Route: ORAL, 0.12, 0.23% OF DIET, TWA, 0.12, 0.23% OF DIET, TWA, Tumor Site: Type of Lesion: LIVER: HEPATOCELLULAR CARCINOMA, BLOOD VESSELS: HEMANGIOSARCOMA) “active; positive”; (Species: MOUSE, Strain/Sex: B6C3F1/MALE, Route: ORAL, 0.12, 0.23% OF DIET, TWA, 0.12, 0.23% OF DIET, TWA, Tumor Site: Type of Lesion: LIVER: HEPATOCELLULAR CARCINOMA, BLOOD VESSELS: HEMANGIOSARCOMA OR HEMANGIOMA) “active; positive”; (Species: RAT, Strain/Sex: F344/FEMALE, Route: ORAL, 0.005, 0.01% OF DIET, TWA, 0.005, 0.01% OF DIET, TWA) “inactive; negative”; (Species: RAT, Strain/Sex: F344/MALE, Route: ORAL, 0.005, 0.01% OF DIET, TWA, 0.005, 0.01% OF DIET, TWA) “inactive; negative”.

Take `Clc1cc2oc3c(Cl)c(Cl)c(Cl)cc3c2cc1Cl`: the carcinogen call reads like this: (Species: RAT, Strain/Sex: SPRAGUE-DAWLEY/FEMALE, Route: ORAL, 6, 20, 44, 92, 200 NG/KG/D (STUDY DURATION: 2 YRS), 6, 20, 44, 92, 200 NG/KG/D (STUDY DURATION: 2 YRS)) “inactive; negative”; (Species: RAT, Strain/Sex: WISTAR/MALE, Route: SUBCUTANEOUS, 4, 40 UG ONCE IN OLIVE OIL (STUDY DURATION: 104 WK), 4, 40 UG ONCE IN OLIVE OIL (STUDY DURATION: 104 WK), Tumor Site: Type of Lesion: LIVER: HEPATOCELLULAR CARCINOMA, NODULE, INJECTION SITE: TUMOR) “active; positive”; (Species: RAT, Strain/Sex: WISTAR/MALE, Route: SUBCUTANEOUS, 4, 40 UG ONCE IN OLIVE OIL (STUDY DURATION: 104 WK), 4, 40 UG ONCE IN OLIVE OIL (STUDY DURATION: 104 WK), Tumor Site: Type of Lesion: LIVER: NODULE, INJECTION SITE: TUMOR) “active; positive”; (Species: RAT, Strain/Sex: WISTAR/MALE, Route: SUBCUTANEOUS, 20 UG IN OLIVE OIL 1/WK INTO BACK FOR 4 WK (STUDY DURATION: 104 WK), Tumor Site: Type of Lesion: LIVER: NODULE, INJECTION SITE: TUMOR) “active; positive”; (Species: RAT, Strain/Sex: WISTAR/MALE, Route: SUBCUTANEOUS, 20 UG IN OLIVE OIL INTO BACK 1/WK FOR 4 WK (STUDY DURATION: 104 WK), Tumor Site: Type of Lesion: LIVER: HEPATOCELLULAR CARCINOMA, NODULE) “active; positive”; (Species: Rat, Strain/Sex: Harlan Sprague-Dawley/Female, Route: Gavage, 200 ng 5 d/wk in corn oil:acetone (99:1) for 30 wk and then vehicle for remainder of 2 yr study, Tumor Site: Type of Lesion: Oral Mucosa: Gingival squamous cell carcinoma (1/53, 3/50) Pancreas: Acinar adenoma or carcinoma (0/53, 2/49)) “active; positive trend (not statistically significant); for stop study vs. controls, inc”. For the same compound, the carcinogen call (Species: Rat, Strain/Sex: Harlan Sprague-Dawley/Female, Route: Gavage, 6, 20, 44, 92, 200 ng in corn oil:acetone (99:1) 5 d/wk for 2 yrs, 6, 20, 44, 92, 200 ng in corn oil:acetone (99:1) 5 d/wk for 2 yrs, Tumor Site: Type of Lesion: Liver: Hepatocellular adenoma (1/53, 0/53, 1/53, 0/52, 2/53, 4/53), Cholangiocarcinoma (0/53, 0/53, 0/53, 1/52, 1/53, 2/) is “active; positive (ntp reports as some evidence; findings in lung, pancreas, and uterus d”.

On to `Nc1ccc2nc3ccccn3c2n1`, for which the carcinogen call (Species: MOUSE, Strain/Sex: CDF1/FEMALE, Route: ORAL, 0.05% IN DIET FOR UP TO 685 D (STUDY DURATION: 685 D), Tumor Site: Type of Lesion: LIVER: HEPATOCELLULAR ADENOMA OR CARCINOMA, BLOOD VESSELS: HEMANGIOENDOTHELIOMA OR HEMANGIOENDOTHELIAL SARCOMA) is “active; positive”; the carcinogen call (Species: MOUSE, Strain/Sex: CDF1/MALE, Route: ORAL, 0.05% IN DIET FOR UP TO 685 D (STUDY DURATION: 685 D), Tumor Site: Type of Lesion: LIVER: HEPATOCELLULAR ADENOMA OR CARCINOMA, BLOOD VESSELS: HEMANGIOENDOTHELIOMA OR HEMANGIOENDOTHELIAL SARCOMA) was “active; positive”; the carcinogen call (Species: RAT, Strain/Sex: F344/FEMALE, Route: ORAL, 500 PPM IN DIET (AV DAILY DOSE: 4.9 MG) FOR 24 MO (STUDY DURATION: 104 WK), Tumor Site: Type of Lesion: SMALL INTESTINE: ADENOMA OR ADENOCARCINOMA OR MUCINOUS CARCINOMA, LARGE INTESTINE: ADENOMA OR ADENOCARCINOMA OR MUCINOUS) was “active; positive”; the carcinogen call (Species: RAT, Strain/Sex: F344/MALE, Route: ORAL, 500 PPM IN DIET (AV DAILY DOSE: 7.5 MG) FOR 24 MO (STUDY DURATION: 104 WK), Tumor Site: Type of Lesion: LIVER: HEPATOCELLULAR CARCINOMA OR ANAPLASTIC HEPATOMA, SMALL INTESTINE: ADENOMA OR ADENOCARCINOMA OR MUCINOUS CARCINOMA) is “active; positive”.

As to `Nc1ccc(Nc2ccccc2)cc1`, the carcinogen call by setting is: (Species: MOUSE, Strain/Sex: B6C3F1/FEMALE, Route: ORAL, 3672, 8170 PPM IN DIET, TWA, 3672, 8170 PPM IN DIET, TWA) “inactive; negative”; (Species: MOUSE, Strain/Sex: B6C3F1/MALE, Route: ORAL, 2057, 4114 PPM IN DIET, TWA, 2057, 4114 PPM IN DIET, TWA) “inactive; negative”; (Species: RAT, Strain/Sex: F344/FEMALE, Route: ORAL, 600, 1200 PPM IN DIET, 600, 1200 PPM IN DIET) “inactive; negative”; (Species: RAT, Strain/Sex: F344/MALE, Route: ORAL, 600, 1200 PPM IN DIET, 600, 1200 PPM IN DIET) “inactive; negative”.

For the compound `[N-]=[N+]=[N-]`, the carcinogen call by setting is: (Species: RAT, Strain/Sex: F344/FEMALE, Route: GAVAGE, 5, 10 MG/KG IN DISTILLED WATER 5 D/WK FOR 103 WK (STUDY DURATION: 2 YR), 5, 10 MG/KG IN DISTILLED WATER 5 D/WK FOR 103 WK (STUDY DURATION: 2 YR)) “inactive; negative”; (Species: RAT, Strain/Sex: F344/MALE, Route: GAVAGE, 5, 10 MG/KG IN DISTILLED WATER 5 D/WK FOR 103 WK (STUDY DURATION: 2 YR), 5, 10 MG/KG IN DISTILLED WATER 5 D/WK FOR 103 WK (STUDY DURATION: 2 YR)) “inactive; negative”.

As to `O=C(O)C[C@@H]1NC(=O)[C@H](Cc2ccccc2)NC1=O`, the carcinogen call is, setting by setting: (Species: MOUSE, Strain/Sex: SWISS/FEMALE, Route: INTRAVESICULAR, 4-4.4 MG IN CHOLESTEROL PELLET (STUDY DURATION: 26 WK)) “inactive; negative”; (Species: MOUSE, Strain/Sex: SWISS/FEMALE, Route: INTRAVESICULAR, 4-4.4 MG IN CHOLESTEROL PELLET (STUDY DURATION: 56 WK)) “inactive; negative”.

Turning to `O=C(O)CCCOc1ccc(Cl)cc1Cl`, the carcinogen call reads like this: (Species: MOUSE, Strain/Sex: ICR/FEMALE, Route: ORAL, 25, 250, 750 PPM IN DIET FOR 78 WK (STUDY DURATION: 78 WK), 25, 250, 750 PPM IN DIET FOR 78 WK (STUDY DURATION: 78 WK)) “inactive; negative”; (Species: MOUSE, Strain/Sex: ICR/MALE, Route: ORAL, 25, 250, 750 PPM IN DIET FOR 78 WK (STUDY DURATION: 78 WK), 25, 250, 750 PPM IN DIET FOR 78 WK (STUDY DURATION: 78 WK)) “inactive; negative”; (Species: RAT, Strain/Sex: SPRAGUE-DAWLEY/FEMALE, Route: ORAL, 60, 600, 1800 PPM IN DIET FOR 104 WK (STUDY DURATION: 104 WK), 60, 600, 1800 PPM IN DIET FOR 104 WK (STUDY DURATION: 104 WK)) “inactive; negative”; (Species: RAT, Strain/Sex: SPRAGUE-DAWLEY/MALE, Route: ORAL, 60, 600, 1800 PPM IN DIET FOR 104 WK (STUDY DURATION: 104 WK), 60, 600, 1800 PPM IN DIET FOR 104 WK (STUDY DURATION: 104 WK)) “inactive; negative”.

For `O=C(CO)[C@@H](O)[C@H](O)[C@H](O)CO`, the carcinogen call (Species: RAT, Strain/Sex: SPRAGUE-DAWLEY/MALE, Route: ORAL, 120 G/L IN DRINKING WATER AD LIBITUM FOR 30 WK (STUDY DURATION: 501 D)) is “inactive; negative”.

Regarding `NNC(=O)c1cccnc1`, the carcinogen call reads like this: (Species: MOUSE, Strain/Sex: SWISS/FEMALE, Route: ORAL, 0.125% IN DRINKING WATER FOR LIFE, STUDY DURATION: 100-110 WK, 0.125% IN DRINKING WATER FOR LIFE, STUDY DURATION: 100-110 WK, Tumor Site: Type of Lesion: LUNG: ADENOMA, ADENOMA OR ADENOCARCINOMA) “active; positive”; (Species: MOUSE, Strain/Sex: SWISS/MALE, Route: ORAL, 0.125% IN DRINKING WATER FOR LIFE, STUDY DURATION: 90-100 WK, 0.125% IN DRINKING WATER FOR LIFE, STUDY DURATION: 90-100 WK, Tumor Site: Type of Lesion: LUNG: ADENOMA OR ADENOCARCINOMA) “active; positive”.
